# Test: Solubility determination
# Format: physicochemical
# Protocol: Prepare a 2 mg/mL solution of Example 2 in each of the required media by weighing approximately 1 mg of compound into a vial and add the required volume (i.e. 0.5 mL) of the corresponding media into each vial. Place capped vial on a rotating mixture over night (˜16 hours) at ambient conditions, then filter using 0.22 um Ultrafree-MC filters (Millipore™) and measure pH of filtrate (Orion 720A pH meter). Prepare the sample for HPLC analysis by transferring 100 μL of the filtrate into a HPLC vial and add 900 μL of 50% acetonitrile/water solution.
compound,measurement,setting,value
"CO[C@@H](C)Cn1c(=O)n(C)c2cnc3ccc(-c4cncc(C(C)(C)O)c4)cc3c21 [Example 2, 8-[5-(1-Hydroxy-1-methylethyl)pyridin-3-yl]-1-[(2S)-2-methoxypropyl]-3-methyl-1,3-dihydro-2H-imidazo[4,5-c]quinolin-2-one, Form I]","Solubility, Average mg/mL","50 mM phosphate buffer at pH 2, average filtrate pH 2.31",≧2.0 mg/mL
same,"Solubility, Average mg/mL","50 mM phosphate buffer at pH 4, average filtrate pH 4.92",1.0524 mg/mL
same,"Solubility, Average mg/mL","50 mM phosphate buffer at pH 6, average filtrate pH 6.14",0.7178 mg/mL
same,"Solubility, Average mg/mL","50 mM phosphate buffer at pH 8, average filtrate pH 8.00",0.6352 mg/mL
same,"Solubility, Average mg/mL","0.1N HCl, average filtrate pH 1.15, ~16 hours, ambient",≧2.0 mg/mL
same,"Solubility, Average mg/mL","Fast, simulated intestinal fluid fasted state, average filtrate pH 6.45",1.0203 mg/mL
same,"Solubility, Average mg/mL","Fed, simulated intestinal fluid fed state, average filtrate pH 5.09",≧2.0 mg/mL
same,"Solubility, Average mg/mL","SGF, simulated gastric fluid, average filtrate pH 3.52",1.7529 mg/mL

# Source: patent US8658668B2, “PI3 kinase/mTOR dual inhibitor” (Eli Lilly and Company, priority 2011, dated 2014)
